According to US8497385B2, “Bryostatin analogues, synthetic methods and uses” (The Board of Trustees of the Leland Stanford Junior …, priority 2007, dated 2013):

Assays:
Assay type in all cases: cell-based, human
[1] = system: SK-MEL-2; assay: NCI growth inhibition, SK-MEL-2 (Melanoma); settings: SK-MEL-2, Melanoma
[2] = system: A498; assay: NCI growth inhibition, A498 (Renal); settings: A498, Renal
[3] = system: HCC-2998; assay: NCI growth inhibition, HCC-2998 (Colon); settings: HCC-2998, Colon
[4] = system: SK-MEL-5; assay: NCI growth inhibition, SK-MEL-5 (Melanoma); settings: SK-MEL-5, Melanoma
[5] = system: UACC-257; assay: NCI growth inhibition, UACC-257 (Melanoma); settings: UACC-257, Melanoma
[6] = system: 786-0; assay: NCI growth inhibition, 786-0 (Renal); settings: 786-0, Renal
[7] = system: MOLT-4; assay: NCI growth inhibition, MOLT-4 (Leukemia); settings: MOLT-4, Leukemia
[8] = system: NCI/ADR-RES; assay: NCI growth inhibition, NCI/ADR-RES (Breast)
[9] = system: EKVX; assay: NCI growth inhibition, EKVX (NSC Lung); settings: NSC Lung
[10] = system: ACHN; assay: NCI growth inhibition, ACHN (Renal); settings: Renal
[11] = system: BT-549; assay: NCI growth inhibition, BT-549 (Breast); settings: BT-549, Breast
[12] = system: OVCAR-5; assay: NCI growth inhibition, OVCAR-5 (Ovarian); settings: OVCAR-5, Ovarian
[13] = system: NCI-H23; assay: NCI growth inhibition, NCI-H23 (NSC Lung)
[14] = system: OVCAR-8; assay: NCI growth inhibition, OVCAR-8 (Ovarian); settings: OVCAR-8, Ovarian
[15] = system: NCI-H226; assay: NCI growth inhibition, NCI-H226 (NSC Lung)
[16] = system: HT29; assay: NCI growth inhibition, HT29 (Colon); settings: HT29, Colon
[17] = system: T-47D; assay: NCI growth inhibition, T-47D (Breast); settings: Breast
[18] = system: MDA-MB-231/ATCC; assay: NCI growth inhibition, MDA-MB-231/ATCC (Breast); settings: Breast
[19] = system: A549/ATCC; assay: NCI growth inhibition, A549/ATCC (NSC Lung); settings: NSC Lung
[20] = system: HOP-92; assay: NCI growth inhibition, HOP-92 (NSC Lung); settings: HOP-92, NSC Lung
[21] = system: RPMI-8226; assay: NCI growth inhibition, RPMI-8226 (Leukemia); settings: RPMI-8226, Leukemia
[22] = system: HOP-62; assay: NCI growth inhibition, HOP-62 (NSC Lung)
[23] = system: SF-539; assay: NCI growth inhibition, SF-539 (CNS); settings: SF-539, CNS
[24] = system: SK-OV-3; assay: NCI growth inhibition, SK-OV-3 (Ovarian); settings: SK-OV-3, Ovarian
[25] = system: HCT-116; assay: NCI growth inhibition, HCT-116 (Colon); settings: HCT-116, Colon
[26] = system: NCI-H322M; assay: NCI growth inhibition, NCI-H322M (NSC Lung); settings: NSC Lung
[27] = system: SW-620; assay: NCI growth inhibition, SW-620 (Colon); settings: SW-620, Colon
[28] = system: MI4; assay: NCI growth inhibition, MI4 (Melanoma); settings: MI4, Melanoma
[29] = system: COLO 205; assay: NCI growth inhibition, COLO 205 (Colon); settings: COLO 205, Colon
[30] = system: HCT-15; assay: NCI growth inhibition, HCT-15 (Colon)
[31] = system: IGROVI; assay: NCI growth inhibition, IGROVI (Ovarian); settings: Ovarian
[32] = system: SF-268; assay: NCI growth inhibition, SF-268 (CNS); settings: SF-268, CNS
[33] = system: MDA-MB-435; assay: NCI growth inhibition, MDA-MB-435 (Breast); settings: MDA-MB-435, Breast
[34] = system: HL-60(TB)
[35] = system: DU-145; assay: NCI growth inhibition, DU-145 (Prostate); settings: DU-145, Prostate
[36] = system: CCRF-CEM; assay: NCI growth inhibition, CCRF-CEM (Leukemia); settings: Leukemia
[37] = system: NCI-H522; assay: NCI growth inhibition, NCI-H522 (NSC Lung)
[38] = system: HS 578T; assay: NCI growth inhibition, HS 578T (Breast); settings: Breast
[39] = system: TK-10; assay: NCI growth inhibition, TK-10 (Renal); settings: TK-10, Renal
[40] = system: K-562; assay: NCI growth inhibition, K-562 (Leukemia); settings: K-562, Leukemia
[41] = system: SN12C; assay: NCI growth inhibition, SN12C (Renal); settings: Renal
[42] = system: MCF7; assay: NCI growth inhibition, MCF7 (Breast); settings: MCF7, Breast
[43] = system: PC-3; assay: NCI growth inhibition, PC-3 (Prostate); settings: PC-3, Prostate
[44] = system: NCI-H460; assay: NCI growth inhibition, NCI-H460 (NSC Lung); settings: NCI-H460, NSC Lung
[45] = system: OVCAR-4; assay: NCI growth inhibition, OVCAR-4 (Ovarian); settings: OVCAR-4, Ovarian
[46] = system: SK-MEL-28; assay: NCI growth inhibition, SK-MEL-28 (Melanoma); settings: SK-MEL-28, Melanoma
[47] = system: OVCAR-3; assay: NCI growth inhibition, OVCAR-3 (Ovarian); settings: OVCAR-3, Ovarian
[48] = system: MDA-N; assay: NCI growth inhibition, MDA-N (Breast)
[49] = system: KM12; assay: NCI growth inhibition, KM12 (Colon); settings: KM12, Colon
[50] = system: SR; assay: NCI growth inhibition, SR (Leukemia); settings: Leukemia
[51] = system: SF-295; assay: NCI growth inhibition, SF-295 (CNS); settings: SF-295, CNS
[52] = system: CAKI-1; assay: NCI growth inhibition, CAKI-1 (Renal); settings: CAKI-1, Renal
[53] = system: SNB-19; assay: NCI growth inhibition, SNB-19 (CNS); settings: SNB-19, CNS
[54] = system: UACC-62; assay: NCI growth inhibition, UACC-62 (Melanoma); settings: UACC-62, Melanoma
[55] = system: MALME-3M; assay: NCI growth inhibition, MALME-3M (Melanoma)
[56] = system: SNB-75; assay: NCI growth inhibition, SNB-75 (CNS); settings: SNB-75, CNS
[57] = system: LOX IMVI; assay: NCI growth inhibition, LOX IMVI (Melanoma); settings: Melanoma
[58] = system: UO-31; assay: NCI growth inhibition, UO-31 (Renal); settings: UO-31, Renal
[59] = system: U251; assay: NCI growth inhibition, U251 (CNS); settings: U251, CNS
[60] = system: RXF-393; assay: NCI growth inhibition, RXF-393 (Renal)

CCC/C=C/C=C/C(=O)O[C@H]1/C(=C/C(=O)OC)C[C@H]2C[C@H]([C@@H](C)O)OC(=O)C[C@H](O)C[C@@H]3C[C@H](OC(C)=O)C(C)(C)[C@](O)(C[C@@H]4C/C(=C/C(=O)OC)C[C@H](/C=C/C(C)(C)[C@]1(O)O2)O4)O3 [Bryo-1, Bryostatin-1, reference compound]
GI50 [1]: −5.20 log of molar concentration
GI50 [2]: >−5 log of molar concentration
GI50 [3]: −5.30 log of molar concentration
GI50 [4]: −5.70 log of molar concentration
GI50 [5]: −5.10 log of molar concentration
GI50 [6]: −5.20 log of molar concentration
GI50 [7]: −5.50 log of molar concentration
GI50 [8]: >−5 log of molar concentration
GI50 [9]: −5.30 log of molar concentration
GI50 [10]: −5.50 log of molar concentration
GI50 [11]: −5.10 log of molar concentration
GI50 [12]: >−5 log of molar concentration
GI50 [13]: >−5 log of molar concentration
GI50 [14]: −5.10 log of molar concentration
GI50 [15]: >−5 log of molar concentration
GI50 [16]: −5.30 log of molar concentration
GI50 [17]: −5.20 log of molar concentration
GI50 [18]: −5.20 log of molar concentration
GI50 [19]: −5.20 log of molar concentration
GI50 [20]: −5.30 log of molar concentration
GI50 [21]: >−5 log of molar concentration
GI50 [22]: >−5 log of molar concentration
GI50 [23]: >−5 log of molar concentration
GI50 [24]: −5.10 log of molar concentration
GI50 [25]: −5.30 log of molar concentration
GI50 [26]: −6.00 log of molar concentration
GI50 [27]: −5.50 log of molar concentration
GI50 [28]: >−5 log of molar concentration
GI50 [29]: −5.40 log of molar concentration
GI50 [30]: >−5 log of molar concentration
GI50 [31]: −5.30 log of molar concentration
GI50 [32]: −5.10 log of molar concentration
GI50 [33]: −5.10 log of molar concentration
GI50 [34]: −5.70 log of molar concentration
GI50 [35]: >−5 log of molar concentration
GI50 [36]: −5.30 log of molar concentration
GI50 [37]: >−5 log of molar concentration
GI50 [38]: −5.2 log of molar concentration
GI50 [39]: >−5 log of molar concentration
GI50 [40]: −5.40 log of molar concentration
GI50 [41]: −5.10 log of molar concentration
GI50 [42]: −5.20 log of molar concentration
GI50 [43]: −5.30 log of molar concentration
GI50 [44]: −5.60 log of molar concentration
GI50 [45]: −5.50 log of molar concentration
GI50 [46]: −5.10 log of molar concentration
GI50 [47]: −5.10 log of molar concentration
GI50 [48]: −5.10 log of molar concentration
GI50 [49]: −5.20 log of molar concentration
GI50 [50]: >−5 log of molar concentration
GI50 [51]: −5.20 log of molar concentration
GI50 [52]: −5.40 log of molar concentration
GI50 [53]: >−5 log of molar concentration
GI50 [54]: −5.30 log of molar concentration
GI50 [55]: −5.20 log of molar concentration
GI50 [56]: −5.50 log of molar concentration
GI50 [57]: −5.10 log of molar concentration
GI50 [58]: −5.60 log of molar concentration
GI50 [59]: −5.10 log of molar concentration
GI50 [60]: −5.30 log of molar concentration
